The record followed here is patent publication US5250700A, “Phenyl pyrazolidinones as bronchodilators and anti-inflammatory agents” (American Home Products Corporation, priority 1992, dated 1993).

Counter-ions that a name gives are not always drawn.

The test system of the first experiment is PDE IV. Kind of experiment: Inhibition of PDE IV isolated from canine tracheal muscle (cAMP metabolism). It counts as biochemical. As to conditions: at 10^-5 (concentration unit not given); percentage of the reduction induced by 10 μM rolipram; canine trachealis PDE IV. As to the method: The following assay is employed to assess the ability of the compound of the invention to inhibit PDE IV. A solution containing PDE IV is prepared from canine tracheal muscle as follows: The dog is euthanized with an overdose of euthanasia while under anesthesia induced by a 33 mg/kg IV bolus of Nembutal. The trachealis muscle is removed, cleaned of connective tissue, and minced thoroughly. Three to four grams of tissue is then homogenized in Trim-HCl buffer (pH 7.8) using a Polytron. The homogenate is then centrifuged at 25,000×g (4° C.) for 30 minutes. The supernatant is decanted and filtered through four layers of gauze, and applied to a 40 cm×2 cm DEAE-Sepharose column that is equilibrated with Trim-HCl buffer (pH 7.8). The column is then washed with an additional 240 mL of buffer to remove unbound proteins. […] Each fraction is assayed for cAMP- and cGMP- metabolizing PDE activity. Fractions eluting at approximately 0.6 M Na-acetate, and containing CAMP but not CGMP metabolic activity are pooled and used as a PDE stock solution for assaying PDE IV inhibitory activity. […] CI-930 is included as an inhibitor of the cyclic GMP-sensitive, cyclic AMP-selectivePDE (PDE III) that is also present in the PDE IV stock solution when prepared as described above.
Turning to `COc1ccc(C2CC(=O)NN2C(N)=O)cc1OC1CCCC1` (stereo not drawn) [Example 5, 5-[3-(Cyclopentyloxy)-4-methoxyphenyl]-3-oxo-1-pyrazolidinecarboxamide], the “inhibition of PDE IV (percentage)” value is recorded as 39%.

In the case of `COC(=O)N1NC(=O)CC1c1ccc(OC)c(OC2CCCC2)c1` (stereo not drawn) [Example 6, 5-[3-(Cyclopentyloxy)-4-methoxyphenyl]-3-oxo-1-pyrazolidinecarboxylic acid methyl ester], the “inhibition of PDE IV (percentage)” value was found to be 52%.

For `COc1ccc(C2CC(=O)NN2CC(=O)O)cc1OC1CCCC1` (stereo not drawn) [Example 7], the “inhibition of PDE IV (percentage)” value was 39%.

Consider `COc1ccc(C2CC(=O)N(C(=O)Nc3ccccc3)N2C)cc1OC1CCCC1` (stereo not drawn) [Example 16, 3-[3-(cyclopentyloxy)-4-methoxyphenyl-2-methyl-5-oxo-N-phenyl-1-pyrazolidinecarboxamide hydrochloride], for which the “inhibition of PDE IV (percentage)” value is reported as 48%.

The experiment is the same for the next values; noted with them: canine trachealis PDE IV, 1 μM 3H-cAMP, 10 μM CI-930, 30° C., pH 7.8; reduction expressed relative to 10 μM rolipram.
As for `COc1ccc(C2CC(=O)N(C(=O)N[C@@H](C)c3cccc4ccccc34)N2C)cc1OC1CCCC1` (single isomer, unassigned) [13 A], the half-inhibitory concentration (IC50) (in general, the concentration that gives 50% inhibition) was determined as 12 nM.

With `COc1ccc(C2CC(=O)N(C(=O)N[C@@H](C)c3cccc4ccccc34)N2C)cc1OC1CCCC1` (single isomer, unassigned) [13 B], the IC50 worked out at 18 nM.

For `COc1ccc(C2CC(=O)NN2)cc1OC1CCCC1` (stereo not drawn) [Example 1, 5-[3-(Cyclopentyloxy)-4-methoxyphenyl]-3-pyrazolidinone], the IC50 turned out to be 340 nM.

In turn, `COc1ccc(C2CC(=O)NN2C)cc1OC1CCCC1` (stereo not drawn) [Example 2, 5-[3--(Cyclopentyloxy)-4-methoxyphenyl]-1-methyl-3-pyrazolidinone] had an IC50 of 680 nM.

`COc1ccc(C2CC(=O)N(C)N2C)cc1OC1CCCC1` (stereo not drawn) [Example 3, 5-[3-(Cyclopentyloxy)-4-methoxyphenyl]-1,2-dimethyl-3-pyrazolidinone, hydriodide] showed an IC50 of 820 nM.

`COC(=O)CN1NC(=O)CC1c1ccc(OC)c(OC2CCCC2)c1` (stereo not drawn) [Example 4, 5-[3-(Cyclopentyloxy)-4-methoxylphenyl]-3-oxo-1-pyrazolidineacetic acid methyl ester] registered an IC50 of 440 nM.

Consider `CNC(=O)N1C(=O)CC(c2ccc(OC)c(OC3CCCC3)c2)N1C` (stereo not drawn) [Example 9, 3-F3-(Cyclopentyloxy)-4-methoxyphenyl]-2-methyl-5-oxo-N-methyl-1-pyrazolidinecarboxamide, hemihidrate], for which the IC50 amounted to 460 nM.

Take `COc1ccc(-c2cc(=O)[nH]n2C)cc1OC1CCCC1` [Example 10, 5-[3-(cyclopentyloxy)-4-methoxyphenyl]-1,2-dihydro-1-methyl-3H-pyrazol-3-one]: the IC50 was determined as 310 nM.

The compound `COc1ccc(-c2cc(=O)n(C(N)=O)n2C)cc1OC1CCCC1` [Example 11, 3-[3-(cyclopentyloxy)-4-methoxylphenyl]-2.5-dihydro-2-methyl-5-oxo-1H-pyrazole-1-carboxamide] had an IC50 of 380 nM.

In the case of `COc1ccc(-c2cc(=O)n(C(=O)NCc3ccccn3)n2C)cc1OC1CCCC1` [Example 12, 3-[3-(cyclopentyloxy)-4-methoxyphenyl]-2.5-dihydro-2-methyl-5-oxo-N-(2-pyridinylmethyl)-1H-pyrazole-1-carboxamide], the IC50 is 420 nM.

As to `CCCCNC(=O)N1C(=O)CC(c2ccc(OC)c(OC3CCCC3)c2)N1C` (stereo not drawn) [Example 14, N-butyl-3-f3-(cyclopentyloxy)-4-methoxyphenyl]-2-methyl-5-oxo-1-pyrazolidinecarboxamide hydrochloride], the IC50 stood at 260 nM.

The compound `CCNC(=O)N1C(=O)CC(c2ccc(OC)c(OC3CCCC3)c2)N1C` (stereo not drawn) [Example 15, 3-[3-(cyclopentyloxy)-4-methoxylphenyl]-N-ethyl-2-methyl-5-oxo-1-pyrazolidinecarboxamide hydrochloride, hydrate] came in with an IC50 of 49 nM.

`COc1ccc(C2CC(=O)N(C(=O)NCc3ccccc3)N2C)cc1OC1CCCC1` (stereo not drawn) [Example 17, 3-[3-(cyclopentyloxy)-4-methoxyphenyl]-2-methyl-5-oxo-N-(phenylmethyl)-1-pyrazolidinecarboxamide hydrochloride] registered an IC50 of 36 nM.

As to `COc1ccc(C2CC(=O)N(C(=O)NC3CCCCC3)N2C)cc1OC1CCCC1` (stereo not drawn) [Example 18, N-cyclohexyl-3-[3-(cyclopentyloxy)-4-methoxyphenyl]-2-methyl-5-oxo-1-pyrazolidine carboxamide hydrochloride], the IC50 was 100 nM.

Compound `COc1ccc(NC(=O)N2C(=O)CC(c3ccc(OC)c(OC4CCCC4)c3)N2C)cc1` (stereo not drawn) [Example 19, 3-[3-(cyclopentyloxy)-4-methoxyphenyl]-N-(4-methoxyphenyl)-2-methyl-5-oxo-1-pyrazolidinecarboxamide] gave a 50% inhibitory concentration (IC50) of 120 nM.

The compound `COc1ccc(C2CC(=O)N(C(=S)NCc3ccc(F)cc3)N2C)cc1OC1CCCC1` (stereo not drawn) [Example 20, 3-[3-(cyclopentyloxy)-4-methoxyphenyl]-N-[(4-fluorophenyl)-methyl]-2-methyl-5-oxo-1-pyrazolidinecarbothioamide] showed an IC50 of 65 nM.

The compound `COc1ccc(CNC(=S)N2C(=O)CC(c3ccc(OC)c(OC4CCCC4)c3)N2C)cc1` (stereo not drawn) [Example 21, 3-[3-(cyclopentyloxy)-4-methoxyphenyl]-N-[(4-methoxyphenyl)methyl]-2-methyl-5-oxo-1-pyrazolidinecarbothioamide] came in with an IC50 of 53 nM.

`COc1ccc(C2CC(=O)N(C(=O)Nc3ccc(F)cc3)N2C)cc1OC1CCCC1` (stereo not drawn) [Example 22] yielded an IC50 of 210 nM.

`COc1ccc(C2CC(=O)N(C(N)=O)N2Cc2ccccc2)cc1OC1CCCC1` (stereo not drawn) [Example 23] displayed an IC50 of 320 nM.

In the case of `COc1ccc(C2CC(=O)N(C(=O)NCc3cccnc3)N2C)cc1OC1CCCC1` (stereo not drawn) [Example 24, 3-[3-(cyclopentyloxy)-4-methoxyphenyl]-2-methyl-5-oxo-N-(3-pyridinylmethyl)-1-pyrazolidine carboxamide], the IC50 was 85 nM.

Turning to `COc1ccc(C2CC(=O)N(Cc3cccnc3)N2C)cc1OC1CCCC1` (stereo not drawn) [Example 25, 5-[3-(cyclopentyloxy)-4-methoxyphenyl]-1-methyl-2-(3-pyridinylmethyl)-3-pyrazolidinone hydrochloride dehydrate], the midpoint of inhibition, the IC50, lay at 1500 nM.

For the compound `CCCCCCCN1C(=O)CC(c2ccc(OC)c(OC3CCCC3)c2)N1C` (stereo not drawn) [Example 26, 5-[3-(cyclopentyloxy)-4-methoxyphenyl-2-heptyl-1-methyl-3-pirazolidinone hydrochloride], it took 170 nM to reach half-maximal inhibition (IC50).

Compound `COc1ccc(C2CC(=O)N(Cc3cncc(Br)c3)N2C)cc1OC1CCCC1` (stereo not drawn) [Example 27, 2-[(5-bromo-3-pyridinyl)methyl]-5-[3-(cyclopentyloxy)-4-methoxyphenyl]-1-methyl-3-pyrazolidinone hydrochloride] had a 50% inhibitory concentration (IC50) of 940 nM.

The compound `COc1ccc(C2CC(=O)N(C(=O)c3cncc(Br)c3)N2C)cc1OC1CCCC1` (stereo not drawn) [Example 28, 5-[3-(cyclopentyloxy)-4-methoxyphenyl]-1-methyl-2-(5-bromo-3-pyridinylcarbonyl)-3-pyrazolidinone] displayed an IC50 of 350 nM.

As for `COc1ccc(C2CC(=O)N(CCCc3cccnc3)N2C)cc1OC1CCCC1` (stereo not drawn) [Example 29, 5-[3(cyclopentyloxy)-4-methoxyphenyl]-1-methyl-2-[3-(3-pyridinyl)propyl]-3-pyrazolidinone quarter dichloromethane], the IC50 was 160 nM.

The compound `COc1ccc(C2CC(=O)N(C/C=C/c3cncc(Br)c3)N2C)cc1OC1CCCC1` (stereo not drawn) [Example 30, 2-[(E)-3-(5-bromo-3-pyridinyl)-2-propenyl]-5-[3-(cyclopentyloxy)-4-methoxyphenyl]-1-methyl-3-pyrazolidinone hemi(dichloromethane)] showed an IC50 of 50 nM.

Regarding `COc1ccc(C2CC(=O)N(C(C)=O)N2C)cc1OC1CCCC1` (stereo not drawn) [Example 31, 2-acetyl-5-[3-(cyclopentyloxy)-4-methoxyphentyl]-1-methyl-3-pyrazolidinone hydrochloride], the half-maximal inhibitory concentration (IC50) was determined as 980 nM.

`COc1ccc(C2CC(=O)N(C(=O)c3cccnc3)N2C)cc1OC1CCCC1` (stereo not drawn) [Example 32, 5-[3-(cyclolpentyloxy)-4-methoxyphenyl]-1-methyl-2-(3-pyridinylcarbonyl)-3-pirazolidinone hemihydrate] came in with a half-maximal inhibitory concentration (IC50) of 340 nM.

In turn, `COc1ccc(C2CC(=O)N(C(=O)/C=C/c3cncc(Br)c3)N2C)cc1OC1CCCC1` (stereo not drawn) [Example 33] yielded an IC50 of 81 nM.

Turning to `COc1ccc(C2CC(=O)NN2Cc2ccccc2)cc1OC1CCCC1` (stereo not drawn) [Example 34, 5-[3-(cyclopentyloxy)-4-methoxyphenyl]-1-(phenylmethyl)-3-pyrazolidinone], the IC50 was 58 nM.

In the case of `CCN1NC(=O)CC1c1ccc(OC)c(OC2CCCC2)c1` (stereo not drawn) [Example 35, 5-[3-(cyclopentyloxy)-4-methoxyphenyl]-1-ethyl-3-pyrazolidinone], the IC50 turned out to be 4100 nM.

In turn, `CCN(CC)CCNC(=O)N1C(=O)CC(c2ccc(OC)c(OC3CCCC3)c2)N1C` (stereo not drawn) [Example 36, 3-(3-Cyclopentyloxy-4-methoxyphenyl)-2-methyl-5-oxo-pyrazolidine-1-carboxylic acid 2-(diethyl-amino) ethylamide] displayed an IC50 of 5600 nM.
